Experiment [1] concerns MCF7. Briefly: Induction of morphological changes in human MCF7 cells at 40 uM after 48 hrs by DAPI staining based fluorescence microscopic method. Format: functional, cell-based.
Experiment [2] concerns MCF7. Briefly: Induction of morphological changes in human MCF7 cells at 40 uM after 48 hrs by DAPI staining based inverted light microscopic method. Format: functional, cell-based.

Calls of active or inactive are those of the source. The calls are words filed in the database; no cut-off is given here.

On to `COc1ccc(C(CC(=O)c2cc3ccccc3oc2=O)NC(=O)CCn2cc(COc3ccc(-c4c(C#N)c(N)nc(Sc5ccccc5)c4C#N)cc3OC)nn2)cc1` (configuration not stated), for which the outcome in the experiment on MCF7 [1] and with MCF7 [2] was Active.

The values are drawn from ChEMBL document CHEMBL4000228, “Synthesis of bioactive and fluorescent pyridine-triazole-coumarin peptidomimetics through sequential click-multicomponent reactions” (Bioorg Med Chem Lett, 2017).
